Results taken from patent publication US20240316141A1, “The Use of Thiourea and Thiourea Derivatives As Potentiators of Antibacterial Activity of Peptoids” (The Board of Trustees of the Leland Stanford Junior …, priority 2021, published 2024).

Columns and labels:
[1] = tested on: bacterial growth; test: MIC of peptoid in the presence and absence of urea, 24 hour incubation; assay type: cell-based; conditions: MIC of TM5 in presence vs absence of urea
Method: FIG. 8. The minimum inhibitory concentration (MIC) of peptoid (TM5) in the presence and absence of urea was examined. MIC was defined as the lowest concentration of peptoid that will inhibit the bacterial growth (i.e., increasing absorbance at 600 nm) after a 24 hour incubation.

[2] = tested on: bacterial growth; test: MIC of different peptoids in the presence and absence of thiourea; assay type: cell-based; conditions: presence vs absence of thiourea; FIGS. 6A-6E
[3] = tested on: Pseudomonas aeruginosa; test: MIC of peptoid in the presence and absence of thiourea, 24 h incubation, absorbance at 600 nm; assay type: cell-based; conditions: presence vs absence of thiourea
Method: FIG. 1. The minimum inhibitory concentration (MIC) of peptoid (TM5) in the presence and absence of thiourea was examined. MIC was defined as the lowest concentration of peptoid that will inhibit the bacterial growth (i.e., increasing absorbance at 600 nm) after 24 h incubation.

[4] = tested on: Staphylococcus aureus; test: as above; assay type: cell-based; conditions: presence vs absence of thiourea
Method: FIG. 3. The minimum inhibitory concentration (MIC) of peptoid (TM5) in the presence and absence of thiourea was examined. MIC was defined as the lowest concentration of peptoid that will inhibit the bacterial growth (i.e., increasing absorbance at 600 nm) after 24 h incubation.

[5] = tested on: Klebsiella pneumoniae; test: as above; assay type: cell-based; conditions: Klebsiella pneumoniae (ciprofloxacin-resistant), presence vs absence of thiourea
Method: FIG. 2. The minimum inhibitory concentration (MIC) of peptoid (TM5) in the presence and absence of thiourea was examined. MIC was defined as the lowest concentration of peptoid that will inhibit the bacterial growth (i.e., increasing absorbance at 600 nm) after 24 h incubation.

[6] = tested on: PA01 ofloxacin induced persister cells; test: Eradication of ofloxacin induced persister cells; assay type: cell-based, Pseudomonas aeruginosa; conditions: PA01 persister cells from stationary phase culture treated with ofloxacin 5 μg/ml for 24 h
[7] = tested on: bacterial growth; test: MIC of antimicrobial peptide in the presence and absence of thiourea, 24 hour incubation; assay type: cell-based; conditions: presence vs absence of thiourea
Method: FIG. 7. The minimum inhibitory concentration (MIC) of an antimicrobial peptide (LL-37) in the presence and absence of thiourea was examined. MIC was defined as the lowest concentration of an antimicrobial peptide that will inhibit the bacterial growth (i.e., increasing absorbance at 600 nm) after a 24 hour incubation.

NC(N)=O [urea]
synergy of urea with peptoid TM5 (MIC) [1]: did not synergize

H-Ntridec-(NLys-Nspe-Nspe(p-Br))2-NLys-NH2 [TM20]
effect of thiourea on antimicrobial activity (MIC) of different peptoids [2]: increases antimicrobial activity

H-Ntridec-NLys-Nspe-Nspe-NLys-NH2 [TM5]
effect of thiourea on minimum inhibitory concentration (MIC) / antimicrobial activity of peptoid [3]: increases antimicrobial activity | effect of thiourea on antimicrobial activity (MIC) of different peptoids [2]: increases antimicrobial activity | effect of thiourea on minimum inhibitory concentration (MIC) / antimicrobial activity of peptoid [4]: increases antimicrobial activity | effect of thiourea on minimum inhibitory concentration (MIC) / antimicrobial activity of peptoid [5]: increases antimicrobial activity | effect of thiourea on persister eradication capability [6]: enhance the persister eradication capability

H—(NLys-Nspe(p-Br)-Nspe(p-Br))2—NH2 [TM4]
effect of thiourea on antimicrobial activity (MIC) of different peptoids [2]: increases antimicrobial activity

H—(NLys-Nspe-Nspe)3-NLys-Nspe-NLys-NH2 [TM16]
effect of thiourea on antimicrobial activity (MIC) of different peptoids [2]: increases antimicrobial activity

LL-37: antimicrobial peptide (LL-37)
synergy of thiourea with antimicrobial peptide (MIC) [7]: did not synergize
